Results as given in US9718823B2, “2, 6-Di-nitrogen-containing substituted purine derivative, and preparation method, pharmaceutical composition and use thereof” (Zhejiang Medicine Co., Ltd. Xinchang Pharmaceutical Factory, priority 2013, dated 2017).

Columns and labels:
Assay type in all cases: biochemical
[1] = target: T1, PDGFR β enzyme (Homo sapiens, UniProt P09619); assay: Inhibitory activity to PDGFR β enzyme, HTRF kinEASE TK kit; conditions: read-out: Inhibition rate % (PDGFR β)
T1 construct: purchased Invitrogen P3082
Protocol: HTRF kinEASE TK (Cat.62TK0PEC, Cisbio)
PDGFR β enzyme (Cat.P3082, Invitrogen)
1 mL 1×Kinase Buffer includes 200 μL 5×Enzyme buffer, 5 μL 1M MgCl2, 1 μL 1M DTT, 1 μL 1M MnCl2, 20 μL 2500 nM SEB, 773 μL ddH2O.
TK-Substrate and ATP are diluted to 2.5 times of reaction concentration with 1×PDGFR β Kinase Buffer.
5×PDGFR β enzyme working solution is prepared with 1×PDGFR β kinase buffer.
4×Sa-XL665 working solution is prepared with Detection Buffer.
TK-Ab-Cryptate is diluted 100 times with Detection Buffer to use as working solution.

[2] = target: T2, PI3K α (Homo sapiens, UniProt P42336); assay: Inhibitory activity to PI3K α, PI 3-Kinase (human) HTRF Assay kit; conditions: read-out: % Inhibition Rate to PI3K α
T2 construct: purchased Millipore 14-602
Excerpt: (§1) Study on the inhibitory activity of the compounds of present invention to PI 3κα, PI3κδ and PI3κγ. Two or three concentrations of the compounds are selected to preliminary screening to calculate respectively the activity inhibition rate of the compounds of corresponding concentrations to enzyme, then the compounds with better activity are selected by preliminary screening for IC50 test.
(§2) PI 3-Kinase (human) HTRF™ Assay kit (Cat.33-017, Millipore)
PI 3k α (Cat.14-602, Millipore)
(§3) 4× Reaction Buffer (Cat.33-002, Millipore) is diluted with ddH2O to 1.33×, and 1M DTT is added to make the final concentration as 6.67 mM. For example, 10 μL DTT is added into 500 μL 4× Reaction Buffer, and water is added to 1.5 mL.
(§4) The Test compounds are dissolved with DMSO to 1 mM as storage liquid. 2 μL of each of storage liquid is added into 48 μL ddH2O, to obtain the 40 μM compounds solution containing 4% DMSO. After mixing, 3 μL of each of the solution is added into 27 μL 4% DMSO (in ddH2O) to obtain the 4 μM compounds solution. 5 μL of each dilute solution is added into 384-well plates, then the final concentration of the compounds in the 20 μL final kinase reaction system is 10 μM and 1 μM respectively contained 1% DMSO. The dilution methods of compounds are similar to the preliminary screening in IC50 test.
(§5) 2×PIP2 working fluid is prepared with 1.33× reaction buffer to the final concentration of 20 μM.
The screening concentration of PI 3k α kinase: 8 ng/well,
(§6) Kinase is diluted with 2×PIP2 operating fluid, the concentration of kinase operating fluid is 2 times of screening concentration.
(§7) 10 mM ATP is diluted with 1.33× reaction buffer to 400 μM. The concentration of ATP is 100 μM in 20 μL kinase reaction system.
(§8) Stop A and Stop B are mixed according to the proportion of 3:1, and are placed for 2 hours at room temperature to obtain the stop solution available.
(§9) DM C, DM A and DM B are mixed according to the proportion of 18:1:1, and are placed for 2 hours at room temperature to obtain the detection solution available.

[3] = target: T3, PI3 K γ (Homo sapiens, UniProt P48736); assay: Inhibitory activity to PI3K γ, PI 3-Kinase (human) HTRF Assay kit; conditions: read-out: Inhibition rate % to PI3 K γ
T3 construct: purchased Biology, Medicilon
Excerpt: as §1, §2
PI 3k γ (Biology, Medicilon)
as §3, §4, §5
The screening concentration of PI 3k γ kinase: 80 ng/well,
as §6, §7, §8, §9

[4] = target: T4, PI3Kδ (Homo sapiens, UniProt O00329); assay: Inhibitory activity to PI3K δ, PI 3-Kinase (human) HTRF Assay kit; conditions: read-out: Inhibition rate % to PI3Kδ; for inhibition at 1 µM: 1 μM (Table 7); for inhibition at 10 µM: 10 μM (Table 7)
T4 construct: purchased Millipore 14-604
Protocol: Study on the inhibitory activity of the compounds of present invention to PI 3κα, PI3κδ and PI3κγ.
as §2
For example, 10 μL DTT is added into 500 μL 4× Reaction Buffer, and water is added to 1.5 mL.
The Test compounds are dissolved with DMSO to 1 mM as storage liquid. 2 μL of each of storage liquid is added into 48 μL ddH2O, to obtain the 40 μM compounds solution containing 4% DMSO. After mixing, 3 μL of each of the solution is added into 27 μL 4% DMSO (in ddH2O) to obtain the 4 μM compounds solution. […]
The screening concentration of PI 3k δ kinase: 2 ng/well,
as §6
The concentration of ATP is 100 μM in 20 μL kinase reaction system.
as §8, §9

T3 sequence (P48736 whole entry): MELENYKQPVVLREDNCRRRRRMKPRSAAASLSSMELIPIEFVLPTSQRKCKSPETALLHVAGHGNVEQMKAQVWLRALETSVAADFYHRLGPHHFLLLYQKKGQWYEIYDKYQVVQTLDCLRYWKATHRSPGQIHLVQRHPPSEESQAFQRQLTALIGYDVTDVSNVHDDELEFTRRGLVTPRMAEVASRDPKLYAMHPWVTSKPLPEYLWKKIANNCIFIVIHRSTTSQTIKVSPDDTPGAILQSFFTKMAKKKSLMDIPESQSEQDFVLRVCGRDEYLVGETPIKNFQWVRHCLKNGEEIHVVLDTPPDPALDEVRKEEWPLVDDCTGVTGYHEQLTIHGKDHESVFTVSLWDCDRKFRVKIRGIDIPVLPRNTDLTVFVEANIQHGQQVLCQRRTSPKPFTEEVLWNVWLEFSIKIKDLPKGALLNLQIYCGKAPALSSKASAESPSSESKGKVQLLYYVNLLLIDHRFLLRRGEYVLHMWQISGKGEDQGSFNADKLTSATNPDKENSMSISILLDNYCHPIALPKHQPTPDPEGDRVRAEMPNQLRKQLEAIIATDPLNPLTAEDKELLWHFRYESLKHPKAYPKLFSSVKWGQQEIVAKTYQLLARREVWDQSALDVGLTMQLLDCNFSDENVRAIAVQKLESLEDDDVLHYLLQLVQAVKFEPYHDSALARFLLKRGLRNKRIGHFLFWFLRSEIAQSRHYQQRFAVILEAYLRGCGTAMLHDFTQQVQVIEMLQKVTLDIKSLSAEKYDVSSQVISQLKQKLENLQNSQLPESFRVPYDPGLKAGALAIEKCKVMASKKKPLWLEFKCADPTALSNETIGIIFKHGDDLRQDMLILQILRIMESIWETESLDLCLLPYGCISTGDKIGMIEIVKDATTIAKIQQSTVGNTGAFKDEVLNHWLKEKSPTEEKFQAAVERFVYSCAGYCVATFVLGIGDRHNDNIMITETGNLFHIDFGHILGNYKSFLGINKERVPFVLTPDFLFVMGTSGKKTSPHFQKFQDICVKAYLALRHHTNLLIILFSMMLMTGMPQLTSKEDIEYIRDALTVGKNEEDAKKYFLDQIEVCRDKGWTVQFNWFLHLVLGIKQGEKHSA
T1 sequence (P09619 33-1106): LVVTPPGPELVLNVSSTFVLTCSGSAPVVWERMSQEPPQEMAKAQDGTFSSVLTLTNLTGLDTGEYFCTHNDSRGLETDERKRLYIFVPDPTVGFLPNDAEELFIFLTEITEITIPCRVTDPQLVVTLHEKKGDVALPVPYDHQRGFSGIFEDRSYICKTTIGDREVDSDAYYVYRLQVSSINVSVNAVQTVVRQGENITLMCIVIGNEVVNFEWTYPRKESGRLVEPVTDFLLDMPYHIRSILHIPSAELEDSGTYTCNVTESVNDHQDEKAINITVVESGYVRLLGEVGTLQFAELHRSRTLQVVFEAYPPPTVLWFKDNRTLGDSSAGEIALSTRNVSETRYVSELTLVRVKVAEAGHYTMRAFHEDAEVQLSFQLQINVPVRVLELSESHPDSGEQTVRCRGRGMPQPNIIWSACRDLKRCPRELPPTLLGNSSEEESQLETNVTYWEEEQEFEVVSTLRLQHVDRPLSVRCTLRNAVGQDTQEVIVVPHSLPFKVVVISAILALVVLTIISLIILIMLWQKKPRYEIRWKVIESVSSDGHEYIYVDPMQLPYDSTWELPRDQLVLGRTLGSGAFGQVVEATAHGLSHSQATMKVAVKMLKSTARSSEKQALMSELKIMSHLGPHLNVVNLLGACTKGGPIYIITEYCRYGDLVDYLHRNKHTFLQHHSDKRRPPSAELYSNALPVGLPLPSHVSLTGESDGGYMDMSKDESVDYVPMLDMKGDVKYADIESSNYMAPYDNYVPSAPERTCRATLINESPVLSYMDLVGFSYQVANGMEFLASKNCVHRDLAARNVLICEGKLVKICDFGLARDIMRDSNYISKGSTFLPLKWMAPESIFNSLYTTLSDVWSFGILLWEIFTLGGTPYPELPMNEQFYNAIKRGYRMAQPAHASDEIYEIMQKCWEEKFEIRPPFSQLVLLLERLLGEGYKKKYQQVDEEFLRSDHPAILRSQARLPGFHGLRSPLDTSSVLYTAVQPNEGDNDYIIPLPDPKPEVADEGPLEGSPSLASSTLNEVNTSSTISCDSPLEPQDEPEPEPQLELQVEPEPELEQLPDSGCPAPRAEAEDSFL
T2 sequence (P42336 whole entry): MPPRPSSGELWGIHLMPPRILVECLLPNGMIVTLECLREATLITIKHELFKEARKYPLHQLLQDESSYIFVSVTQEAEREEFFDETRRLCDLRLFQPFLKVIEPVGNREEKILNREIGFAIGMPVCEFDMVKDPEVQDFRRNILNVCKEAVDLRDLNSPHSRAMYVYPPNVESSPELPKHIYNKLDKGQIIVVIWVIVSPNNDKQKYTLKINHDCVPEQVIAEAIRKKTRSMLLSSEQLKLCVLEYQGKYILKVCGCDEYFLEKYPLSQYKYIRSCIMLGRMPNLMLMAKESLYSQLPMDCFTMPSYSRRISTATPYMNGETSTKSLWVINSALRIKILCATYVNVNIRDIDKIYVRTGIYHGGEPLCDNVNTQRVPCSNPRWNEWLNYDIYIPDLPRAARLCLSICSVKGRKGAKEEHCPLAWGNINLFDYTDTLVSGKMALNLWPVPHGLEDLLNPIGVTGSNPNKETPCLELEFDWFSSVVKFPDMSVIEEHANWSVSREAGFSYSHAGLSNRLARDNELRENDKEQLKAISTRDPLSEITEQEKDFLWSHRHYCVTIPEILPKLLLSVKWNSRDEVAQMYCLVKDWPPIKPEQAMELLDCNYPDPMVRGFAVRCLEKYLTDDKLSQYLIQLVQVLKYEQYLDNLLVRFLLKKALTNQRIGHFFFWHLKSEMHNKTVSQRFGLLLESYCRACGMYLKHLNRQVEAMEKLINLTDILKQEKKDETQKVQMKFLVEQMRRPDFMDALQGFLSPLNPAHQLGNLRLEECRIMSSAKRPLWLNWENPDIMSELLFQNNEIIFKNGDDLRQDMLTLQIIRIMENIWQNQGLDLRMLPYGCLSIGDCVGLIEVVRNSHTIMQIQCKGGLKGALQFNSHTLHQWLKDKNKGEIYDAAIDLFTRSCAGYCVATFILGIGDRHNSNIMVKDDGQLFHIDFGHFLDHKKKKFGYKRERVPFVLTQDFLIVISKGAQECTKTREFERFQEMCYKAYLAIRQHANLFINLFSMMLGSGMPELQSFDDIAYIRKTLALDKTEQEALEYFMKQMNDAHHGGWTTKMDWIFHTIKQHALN
T2 sequence (P27986 whole entry partner): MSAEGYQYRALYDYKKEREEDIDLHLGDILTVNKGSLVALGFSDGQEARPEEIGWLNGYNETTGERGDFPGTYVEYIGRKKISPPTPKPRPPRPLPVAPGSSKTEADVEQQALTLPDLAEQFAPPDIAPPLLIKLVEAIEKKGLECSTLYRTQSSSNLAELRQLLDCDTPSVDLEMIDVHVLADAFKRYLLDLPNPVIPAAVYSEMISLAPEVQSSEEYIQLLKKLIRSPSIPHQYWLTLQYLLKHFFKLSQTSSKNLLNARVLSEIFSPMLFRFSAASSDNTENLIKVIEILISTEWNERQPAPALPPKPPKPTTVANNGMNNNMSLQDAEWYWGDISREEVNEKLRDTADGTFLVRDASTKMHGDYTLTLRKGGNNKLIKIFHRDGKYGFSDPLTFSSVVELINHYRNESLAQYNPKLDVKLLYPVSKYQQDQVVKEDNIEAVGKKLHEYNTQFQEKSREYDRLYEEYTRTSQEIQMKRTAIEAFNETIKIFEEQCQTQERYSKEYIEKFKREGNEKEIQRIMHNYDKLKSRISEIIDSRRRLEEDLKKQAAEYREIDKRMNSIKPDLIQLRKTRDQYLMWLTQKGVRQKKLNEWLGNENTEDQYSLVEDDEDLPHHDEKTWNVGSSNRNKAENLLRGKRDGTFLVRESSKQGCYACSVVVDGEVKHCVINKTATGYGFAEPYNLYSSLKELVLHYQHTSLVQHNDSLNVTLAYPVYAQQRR
T4 sequence (O00329 whole entry): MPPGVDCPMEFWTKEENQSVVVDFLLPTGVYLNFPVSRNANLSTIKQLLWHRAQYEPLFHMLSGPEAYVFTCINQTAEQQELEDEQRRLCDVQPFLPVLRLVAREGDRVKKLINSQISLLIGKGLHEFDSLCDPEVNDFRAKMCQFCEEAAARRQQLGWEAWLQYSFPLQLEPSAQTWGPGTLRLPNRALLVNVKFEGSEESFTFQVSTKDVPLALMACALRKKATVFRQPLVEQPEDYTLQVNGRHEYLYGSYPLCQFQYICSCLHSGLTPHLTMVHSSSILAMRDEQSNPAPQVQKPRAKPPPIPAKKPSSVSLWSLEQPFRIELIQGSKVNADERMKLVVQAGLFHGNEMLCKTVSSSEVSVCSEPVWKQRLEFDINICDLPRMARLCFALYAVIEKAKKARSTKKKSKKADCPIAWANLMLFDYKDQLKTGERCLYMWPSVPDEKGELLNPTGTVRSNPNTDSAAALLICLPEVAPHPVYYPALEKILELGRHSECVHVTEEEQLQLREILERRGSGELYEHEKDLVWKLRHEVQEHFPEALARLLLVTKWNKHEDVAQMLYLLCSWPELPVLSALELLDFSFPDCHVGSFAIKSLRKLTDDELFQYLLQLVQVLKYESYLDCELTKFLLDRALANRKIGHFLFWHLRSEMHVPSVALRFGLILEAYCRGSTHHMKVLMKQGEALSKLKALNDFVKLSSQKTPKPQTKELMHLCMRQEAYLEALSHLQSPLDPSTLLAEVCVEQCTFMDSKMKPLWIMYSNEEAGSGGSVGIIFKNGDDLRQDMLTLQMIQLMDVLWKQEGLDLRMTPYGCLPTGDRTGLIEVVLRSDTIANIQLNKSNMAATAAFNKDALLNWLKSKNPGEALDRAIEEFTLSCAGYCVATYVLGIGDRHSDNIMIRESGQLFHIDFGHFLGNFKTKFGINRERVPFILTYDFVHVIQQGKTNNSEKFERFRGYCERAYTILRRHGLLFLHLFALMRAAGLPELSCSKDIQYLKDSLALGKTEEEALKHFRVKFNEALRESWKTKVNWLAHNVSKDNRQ
T4 sequence (P27986 whole entry partner): as the sequence (P27986 whole entry partner) above

SMILES	inhibition at 1 µM [1] [%]	inhibition at 10 µM [1] [%]	inhibition at 1 µM [2] [%]	inhibition at 10 µM [2] [%]	inhibition at 1 µM [3] [%]	inhibition at 10 µM [3] [%]	inhibition at 1 µM [4] [%]	inhibition at 10 µM [4] [%]
c1ccc(-c2ccnc3ccc(Nc4nc(OC5CCC5)c5nc[nH]c5n4)cc23)cc1 [MED1007-98]	38.1	37.8	102	118	32.8	105	71.1	105
COc1ccc(-c2ccnc3ccc(Nc4nc(NC5CC5)c5nc[nH]c5n4)cc23)cc1OC [MED1007-84, N6-cyclopropyl-N2-(4-(3,4-dimethoxyphenyl)quinoline-6-yl)-9H-purine-2,6-diamine]	-8.59	13.4	58.7	99.2	26.6	34.2	71.8	101
c1ccc(-c2ccnc3ccc(Nc4nc(NCC5CCCC5)c5nc[nH]c5n4)cc23)cc1 [MED1007-99, N6-(cyclopentylmethyl)-N2-(4-phenylquinoline-6-yl)-9H-purine-2,6-diamine]	33.1	9.88	23.3	88.3	4.68	39.9	7.67	88.1
COc1cccc(-c2ccnc3ccc(Nc4nc(NC5CCC5)c5nc[nH]c5n4)cc23)c1 [MED1007-71, N6-cyclobutyl-N2-(4-(3-methoxyphenyl)quinoline-6-yl)-9H-purine-2,6-diamine]	9.74	4.5	10.4	75	2.55	47.4	24.4	64.4
OCCNc1nc(Nc2ccc3nccc(-c4ccccc4)c3c2)nc2[nH]cnc12 [MED1007-69, 2-(2-(4-phenylquinoline-6-ylamino)-9H-purine-6-ylamino) ethanol]	11.7	31.8	38.8	78.2	1.27	21.1	28.9	36.4
c1cc(-c2ccc3c(c2)OCO3)c2cc(Nc3nc(NC4CC4)c4nc[nH]c4n3)ccc2n1 [MED1007-85, N2-(4-(benzo[1,3]-dioxole-5-yl)quinoline-6-yl)-N6-cyclopropane-9H-purine-2,6-diamine]	-3.44	29.8	66.2	90.1	16.8	41.9	54.1	113
COc1ccccc1-c1ccnc2ccc(Nc3nc(NC4CC4)c4nc[nH]c4n3)cc12 [MED1007-86, N6-cyclopropyl-N2-(4-(2-methoxyphenyl)quinoline-6-yl)-9H-purine-2,6-diamine]	-5.49	-3.13	19.2	39.6	8.35	23.1	27.3	66.4
c1ccc(-c2ccnc3ccc(Nc4nc(OC5CCCCC5)c5nc[nH]c5n4)cc23)cc1 [MED1007-107, N-(6-cyclohexyloxy-9H-purine-2-yl)-4-phenyl quinoline-6-amine]			29.9	65.8			29.3	119
CSc1cccc(-c2ccnc3ccc(Nc4nc(NC5CC5)c5nc[nH]c5n4)cc23)c1 [MED1007-88, N6-cyclopropyl-N2-(4-(3-(methylthio)phenyl)quinoline-6-yl)-9H-purine-2,6-diamine]	-5.37	2.89	46.2	110	7.02	41.5	31	103
FC(F)(F)Cn1cnc2c(NC3CC3)nc(Nc3ccc4nccc(-c5ccccc5)c4c3)nc21 [MED1007-65, N6-cyclopropyl-N2-(4-phenylquinoline-6-yl)-9-(2,2,2-trifluoroethyl)-9H-purine-2,6-diamine]	21.5	14	0.69	10.2	1.54	37.2	7.48	38.4
c1ccc(-c2ccnc3ccc(Nc4nc(NC5CCCC5)c5nc[nH]c5n4)cc23)cc1 [MED1007-106, N6-cyclopentyl-N2-(4-phenylquinoline-6-yl)-9H-purine-2,6-diamine]			24.4	97.4			32.9	89.1
CSc1ccccc1-c1ccnc2ccc(Nc3nc(NC4CC4)c4nc[nH]c4n3)cc12 [MED1007-87, N6-cyclopropyl-N2-(4-(2-(methylthio)phenyl)quinoline-6-yl)-9H-purine-2,6-diamine]	-7.6	-4.13	13.8	60.6	-3.76	29.5	23	80
COCCCNc1nc(Nc2ccc3nccc(-c4ccccc4)c3c2)nc2[nH]cnc12 [MED1007-67, N6-(3-methoxypropyl)-N2-(4-phenylquinoline-6-yl)-9H-purine-2,6-diamine]	22.2	18.7	3.77	37.2	0.71	10.2	11.3	32
CCOc1cccc(-c2ccnc3ccc(Nc4nc(NC5CC5)c5nc[nH]c5n4)cc23)c1 [MED1007-83, N6-cyclopropyl-N2-(4-(3-ethoxyphenyl)quinoline-6-yl)-9H-purine-2,6-diamine]	4.5	7.6	36.2	87.6	5.93	24	22.7	68.5
c1ccc(-c2ccnc3ccc(Nc4nc(NC5CCC5)c5nc[nH]c5n4)cc23)cc1 [MED1007-75, N6-cyclobutyl-N2-(4-phenylquinoline-6-yl)-9H-purine-2,6-diamine]	13.2	8.74	11.1	51.3	6.93	10.9	10.9	42.6
CC(C)Oc1nc(Nc2ccc3nccc(N4CCNCC4)c3c2)nc2[nH]cnc12 [MED1007-58, N-(6-isopropoxy-9H-purine-2-yl)-4-(piperazine-1-yl) quinoline-6-amine]	3.93	29.5			-0.29	-0.98	2.11	35
